Tested on: MV-4-11 cells
Assay: Gene expression microarray analysis (Affymetrix PrimeView) and GSEA
Format: cell-based, human
Set-up: RFU PODN (11730768_x_at) / Fold change /veh PODN (11730768_x_at) / RFU LINC00158 (11744669_a_at) / Fold change /veh LINC00158 (11744669_a_at) / RFU DUSP10 (11751237_a_at) / Fold change /veh DUSP10 (11751237_a_at) / RFU ID3 (11757404_x_at) / Fold change /veh ID3 (11757404_x_at) / RFU PLEKHG5 (11737974_s_at) / Fold change /veh PLEKHG5 (11737974_s_at) / RFU LRRC4B (11730491_at) / Fold change /veh LRRC4B (11730491_at) / RFU GIMAP4 (11747438_a_at) / Fold change /veh GIMAP4 (11747438_a_at) / RFU KRT8 (11758183_x_at) / Fold change /veh KRT8 (11758183_x_at) / RFU CNN1 (11734310_a_at) / Fold change /veh CNN1 (11734310_a_at) / RFU VPS37D (11726825_at) / Fold change /veh VPS37D (11726825_at) / RFU C10orf10 (11716522_x_at) / Fold change /veh C10orf10 (11716522_x_at) / RFU KIR2DL2 /// KIR2DL4 /// KIR2DL5A /// KIR2DL5B /// KIR2DS1 /// KIR2DS2 /// KIR2DS3 /// KIR2DS4 /// KIR3DL3 /// KIR3DL3 /// KIR3DS1 (11738374_at) / Fold change /veh KIR2DL2 /// KIR2DL4 /// KIR2DL5A /// KIR2DL5B /// KIR2DS1 /// KIR2DS2 /// KIR2DS3 /// KIR2DS4 /// KIR3DL3 /// KIR3DL3 /// KIR3DS1 (11738374_at) / RFU C1QL1 (11718748_at) / Fold change /veh C1QL1 (11718748_at) / RFU TMPRSS4 (11747572_a_at) / Fold change /veh TMPRSS4 (11747572_a_at) / RFU HAMP (11756126_x_at) / Fold change /veh HAMP (11756126_x_at) / RFU RNFT2 (11725882_a_at) / Fold change /veh RNFT2 (11725882_a_at) / RFU NR4A2 (11747474_a_at) / Fold change /veh NR4A2 (11747474_a_at) / RFU ABCC12 (11746883_a_at) / Fold change /veh ABCC12 (11746883_a_at) / RFU TMEM136 (11760407_x_at) / Fold change /veh TMEM136 (11760407_x_at) / RFU CLDN22 /// WWC2 (11732394_at) / Fold change /veh CLDN22 /// WWC2 (11732394_at) / RFU HLA-DPB1 (11760878_x_at) / Fold change /veh HLA-DPB1 (11760878_x_at) / RFU SPINT1 (11716480_a_at) / Fold change /veh SPINT1 (11716480_a_at) / RFU GAP43 (11754022_s_at) / Fold change /veh GAP43 (11754022_s_at) / RFU A4GNT (11735810_at) / Fold change /veh A4GNT (11735810_at) / RFU PRB3 (11715151_x_at) / Fold change /veh PRB3 (11715151_x_at) / RFU TUBB4B (11761932_at) / Fold change /veh TUBB4B (11761932_at) / RFU CAPN14 (11732068_a_at) / Fold change /veh CAPN14 (11732068_a_at) / RFU TMCC2 (11721928_a_at) / Fold change /veh TMCC2 (11721928_a_at) / RFU IRGQ (11745062_a_at) / Fold change /veh IRGQ (11745062_a_at) / RFU FAM174B (11720279_a_at) / Fold change /veh FAM174B (11720279_a_at) / RFU TMPRSS4 (11748680_a_at) / Fold change /veh TMPRSS4 (11748680_a_at) / RFU FAM212B (11763350_a_at) / Fold change /veh FAM212B (11763350_a_at) / RFU PLEKHG5 (11743358_a_at) / Fold change /veh PLEKHG5 (11743358_a_at) / RFU ZSCAN30 (11745921_a_at) / Fold change /veh ZSCAN30 (11745921_a_at) / RFU CMKLR1 (11741424_a_at) / Fold change /veh CMKLR1 (11741424_a_at) / RFU LOC101060620 /// MAPK8IP1 (11723275_at) / Fold change /veh LOC101060620 /// MAPK8IP1 (11723275_at) / RFU SPTSSB (11747773_x_at) / Fold change /veh SPTSSB (11747773_x_at) / RFU PRSS12 (11739890_at) / Fold change /veh PRSS12 (11739890_at) / RFU BIN1 (11741810_x_at) / Fold change /veh BIN1 (11741810_x_at) / RFU WNT11 (11732464_a_at) / Fold change /veh WNT11 (11732464_a_at) / RFU C10orf10 (11716521_a_at) / Fold change /veh C10orf10 (11716521_a_at) / RFU C5orf56 (11738089_at) / Fold change /veh C5orf56 (11738089_at) / RFU CYB561 (11721691_x_at) / Fold change /veh CYB561 (11721691_x_at) / RFU ANKRD19P (11752326_a_at) / Fold change /veh ANKRD19P (11752326_a_at) / RFU OR2T12 /// OR2T33 /// OR2T8 (11738714_s_at) / Fold change /veh OR2T12 /// OR2T33 /// OR2T8 (11738714_s_at) / RFU VCAN (11748164_a_at) / Fold change /veh VCAN (11748164_a_at) / RFU JSRP1 (11732532_at) / Fold change /veh JSRP1 (11732532_at) / RFU KRTAP10-11 (11738290_x_at) / Fold change /veh KRTAP10-11 (11738290_x_at) / RFU MYO3A (11730013_a_at) / Fold change /veh MYO3A (11730013_a_at) / RFU EBF3 (11725865_a_at) / Fold change /veh EBF3 (11725865_a_at) / RFU CAMK2N1 (11719241_x_at) / Fold change /veh CAMK2N1 (11719241_x_at) / RFU C5orf56 (11738088_a_at) / Fold change /veh C5orf56 (11738088_a_at) / RFU OLFML3 (11715873_a_at) / Fold change /veh OLFML3 (11715873_a_at) / RFU LOC100653217 /// NTM (11731650_a_at) / Fold change /veh LOC100653217 /// NTM (11731650_a_at) / RFU MAPK11 (11762145_a_at) / Fold change /veh MAPK11 (11762145_a_at) / RFU FIZ1 (11724087_x_at) / Fold change /veh FIZ1 (11724087_x_at) / RFU OASL (11726364_x_at) / Fold change /veh OASL (11726364_x_at) / RFU SOX15 (11748057_x_at) / Fold change /veh SOX15 (11748057_x_at) / RFU CD79A (11719716_a_at) / Fold change /veh CD79A (11719716_a_at) / RFU HIST1H1D (11736915_at) / Fold change /veh HIST1H1D (11736915_at) / RFU CASKIN2 (11723855_a_at) / Fold change /veh CASKIN2 (11723855_a_at) / RFU LOC730098 (11760151_x_at) / Fold change /veh LOC730098 (11760151_x_at) / RFU OR4N2 (11742367_at) / Fold change /veh OR4N2 (11742367_at) / RFU PRRT2 (11749266_a_at) / Fold change /veh PRRT2 (11749266_a_at) / RFU SNX32 (11753110_a_at) / Fold change /veh SNX32 (11753110_a_at) / RFU CDHR5 (11726645_a_at) / Fold change /veh CDHR5 (11726645_a_at) / RFU RCAN1 (11760418_a_at) / Fold change /veh RCAN1 (11760418_a_at) / RFU FAM167A (11723789_a_at) / Fold change /veh FAM167A (11723789_a_at) / RFU FAM26E (11764081_at) / Fold change /veh FAM26E (11764081_at) / RFU ISYNA1 (11749810_s_at) / Fold change /veh ISYNA1 (11749810_s_at) / RFU ACY1 (11761880_at) / Fold change /veh ACY1 (11761880_at) / RFU 11764098_at / Fold change /veh 11764098_at / RFU SAMD14 (11745864_x_at) / Fold change /veh SAMD14 (11745864_x_at) / RFU NPB (11741838_a_at) / Fold change /veh NPB (11741838_a_at) / RFU TMPRSS6 (11731388_a_at) / Fold change /veh TMPRSS6 (11731388_a_at) / RFU KRTAP10-2 (11738614_at) / Fold change /veh KRTAP10-2 (11738614_at) / RFU ARHGAP8 /// PRR5-ARHGAP8 (11727945_x_at) / Fold change /veh ARHGAP8 /// PRR5-ARHGAP8 (11727945_x_at) / RFU KRTAP5-7 /// NADSYN1 (11734609_at) / Fold change /veh KRTAP5-7 /// NADSYN1 (11734609_at) / RFU RASL12 (11751679_a_at) / Fold change /veh RASL12 (11751679_a_at) / RFU CDKN2B (11736163_a_at) / Fold change /veh CDKN2B (11736163_a_at) / RFU PRF1 (11729649_at) / Fold change /veh PRF1 (11729649_at) / RFU, ZNF638 /// ZNF638-IT1 / Fold change vs veh, ZNF638 /// ZNF638-IT1 / RFU, PANK3 / Fold change vs veh, PANK3 / RFU, SH3YL1 / Fold change vs veh, SH3YL1 / RFU, ZEB2 / Fold change vs veh, ZEB2 / RFU, NRIP1 / Fold change vs veh, NRIP1 / RFU, PTTG1IP / Fold change vs veh, PTTG1IP / RFU, CAPN2 / Fold change vs veh, CAPN2 / RFU, MED14 / Fold change vs veh, MED14 / RFU, SNORA58 / Fold change vs veh, SNORA58 / RFU, C1orf63 / Fold change vs veh, C1orf63 / RFU, LRRFIP1 / Fold change vs veh, LRRFIP1 / RFU, NDUFAF7 / Fold change vs veh, NDUFAF7 / RFU, SLC12A2 / Fold change vs veh, SLC12A2 / RFU, IBTK / Fold change vs veh, IBTK / RFU, ESF1 / Fold change vs veh, ESF1 / Fold change vs veh, TMEM50B / RFU, TAOK1 / Fold change vs veh, TAOK1 / RFU, ACBD3 / Fold change vs veh, ACBD3 / RFU, TMA16 / Fold change vs veh, TMA16 / RFU, RWDD3 / Fold change vs veh, RWDD3 / RFU, BCAT1 / Fold change vs veh, BCAT1 / RFU, EDEM3 / Fold change vs veh, EDEM3 / RFU, TMEM33 / Fold change vs veh, TMEM33 / RFU, WDR75 / Fold change vs veh, WDR75 / RFU, AHCTF1 / Fold change vs veh, AHCTF1 / RFU, TFRC / Fold change vs veh, TFRC / RFU, ZDHHC17 / Fold change vs veh, ZDHHC17 / RFU, NOM1 / Fold change vs veh, NOM1 / RFU, ARL8B / Fold change vs veh, ARL8B / RFU, ZBTB11 / Fold change vs veh, ZBTB11 / RFU, TAMM41 / Fold change vs veh, TAMM41 / RFU, KIAA1704 /// LOC100996395 / Fold change vs veh, KIAA1704 /// LOC100996395 / RFU, ING1 / Fold change vs veh, ING1 / RFU, TRMT61B / Fold change vs veh, TRMT61B / RFU, FUBP3 / Fold change vs veh, FUBP3 / RFU, TP53 / Fold change vs veh, TP53 / RFU, TNKS2 / Fold change vs veh, TNKS2 / RFU, ZFP14 / Fold change vs veh, ZFP14 / RFU, ACTR2 / Fold change vs veh, ACTR2 / RFU, PPP3R1 / Fold change vs veh, PPP3R1 / RFU, PIK3R1 / Fold change vs veh, PIK3R1 / RFU, HNRNPA1 / Fold change vs veh, HNRNPA1 / RFU, RNF170 / Fold change vs veh, RNF170 / RFU, ZNF28 / Fold change vs veh, ZNF28 / RFU, RNGTT / Fold change vs veh, RNGTT / RFU, OGT / Fold change vs veh, OGT / RFU, BRD1 / Fold change vs veh, BRD1 / RFU, MARS / Fold change vs veh, MARS / RFU, ZNF655 / Fold change vs veh, ZNF655 / RFU, FAHD1 / Fold change vs veh, FAHD1 / RFU, BDP1 / Fold change vs veh, BDP1 / RFU, LRRCC1 / Fold change vs veh, LRRCC1 / RFU, ARID1A / Fold change vs veh, ARID1A / RFU, ZNF146 / Fold change vs veh, ZNF146 / RFU, ZNF330 / Fold change vs veh, ZNF330 / RFU, GPN3 / Fold change vs veh, GPN3 / RFU, C9orf123 / Fold change vs veh, C9orf123 / RFU, N4BP2L2 / Fold change vs veh, N4BP2L2 / RFU, ARFIP1 / Fold change vs veh, ARFIP1 / RFU, FAM179B / Fold change vs veh, FAM179B / RFU, BCL10 / Fold change vs veh, BCL10 / RFU, UHRF1BP1L / Fold change vs veh, UHRF1BP1L / RFU, BET1 / Fold change vs veh, BET1 / RFU, CNOT2 / Fold change vs veh, CNOT2 / RFU, ZNF268 / Fold change vs veh, ZNF268 / Fold change vs veh, ZNF507 / RFU, DGCR2 / Fold change vs veh, DGCR2 / RFU, WDSUB1 / Fold change vs veh, WDSUB1 / Fold change vs veh, HSP90B1 /// MIR3652 / RFU, ADSS / Fold change vs veh, ADSS / RFU, GK / Fold change vs veh, GK / RFU, ZNF148 / Fold change vs veh, ZNF148 / RFU, TAF9 / Fold change vs veh, TAF9 / RFU, SLC1A5 / Fold change vs veh, SLC1A5 / RFU, SLMO2 / Fold change vs veh, SLMO2 / RFU, ABCC4 / Fold change vs veh, ABCC4 / RFU, LOC101060439 /// RAP1B / Fold change vs veh, LOC101060439 /// RAP1B / RFU, RFX7 / Fold change vs veh, RFX7 / RFU, GTPBP10 / Fold change vs veh, GTPBP10 / RFU, CNEP1R1 / Fold change vs veh, CNEP1R1 / RFU, BIVM-ERCC5 /// ERCC5 / Fold change vs veh, BIVM-ERCC5 /// ERCC5 / RFU, ILF3 / Fold change vs veh, ILF3 / RFU 11762660_at / Fold change /veh 11762660_at / RFU VCAN (11757783_s_at) / Fold change /veh VCAN (11757783_s_at) / RFU DDX43 (11728927_at) / Fold change /veh DDX43 (11728927_at) / RFU KRT8 (11758188_x_at) / Fold change /veh KRT8 (11758188_x_at) / RFU NKD1 (11759106_at) / Fold change /veh NKD1 (11759106_at) / RFU SRD5A1 (11742802_a_at) / Fold change /veh SRD5A1 (11742802_a_at) / RFU TPSAB1 /// TPSB2 (11721975_s_at) / Fold change /veh TPSAB1 /// TPSB2 (11721975_s_at) / RFU GSTM3 (11746129_a_at) / Fold change /veh GSTM3 (11746129_a_at) / RFU IL23R (11737362_x_at) / Fold change /veh IL23R (11737362_x_at) / RFU TMEM51 (11727254_a_at) / Fold change /veh TMEM51 (11727254_a_at) / RFU PIWIL2 (11732686_x_at) / Fold change /veh PIWIL2 (11732686_x_at) / RFU ORM1 (11744905_x_at) / Fold change /veh ORM1 (11744905_x_at) / RFU CCDC152 (11743942_at) / Fold change /veh CCDC152 (11743942_at) / RFU ECM1 (11717891_a_at) / Fold change /veh ECM1 (11717891_a_at) / RFU IL23R (11748794_a_at) / Fold change /veh IL23R (11748794_a_at) / RFU TNFAIP8L3 (11732012_x_at) / Fold change /veh TNFAIP8L3 (11732012_x_at) / RFU MBOAT4 (11741988_at) / Fold change /veh MBOAT4 (11741988_at) / RFU 11764193_at / Fold change /veh 11764193_at / RFU TMEM53 (11763286_at) / Fold change /veh TMEM53 (11763286_at) / RFU MAGEB2 (11727129_at) / Fold change /veh MAGEB2 (11727129_at) / RFU TMEM200A (11744735_a_at) / Fold change /veh TMEM200A (11744735_a_at) / RFU CCDC152 (11751479_a_at) / Fold change /veh CCDC152 (11751479_a_at) / RFU FAM211A (11726209_a_at) / Fold change /veh FAM211A (11726209_a_at) / RFU RGS16 (11746705_a_at) / Fold change /veh RGS16 (11746705_a_at) / RFU VCAN (11755009_s_at) / Fold change /veh VCAN (11755009_s_at) / RFU RHOB (11743442_s_at) / Fold change /veh RHOB (11743442_s_at) / RFU RGS16 (11720943_a_at) / Fold change /veh RGS16 (11720943_a_at) / RFU RGS16 (11720944_at) / Fold change /veh RGS16 (11720944_at) / RFU, VPS4B / Fold change vs veh, VPS4B / RFU, CREB1 / Fold change vs veh, CREB1 / RFU, DNAJC13 / Fold change vs veh, DNAJC13 / RFU, GNAQ / Fold change vs veh, GNAQ / RFU, CDK5R1 / Fold change vs veh, CDK5R1 / RFU, ZRANB3 / Fold change vs veh, ZRANB3 / RFU, CUL4A / Fold change vs veh, CUL4A / RFU, CCNY / Fold change vs veh, CCNY / RFU, UFL1 / Fold change vs veh, UFL1 / RFU, COG3 / Fold change vs veh, COG3 / RFU, DIAPH2 / Fold change vs veh, DIAPH2 / RFU, SKA2 / Fold change vs veh, SKA2 / RFU, AFF3 / Fold change vs veh, AFF3 / RFU, LMF1 / Fold change vs veh, LMF1 / RFU, IPO11 / Fold change vs veh, IPO11 / RFU, DFFB / Fold change vs veh, DFFB / RFU, FOXP1 / Fold change vs veh, FOXP1 / RFU, CARD8 / Fold change vs veh, CARD8 / RFU, STRN3 / Fold change vs veh, STRN3 / RFU, ADK / Fold change vs veh, ADK / RFU, RASSF2 / Fold change vs veh, RASSF2 / RFU, WIPF1 / Fold change vs veh, WIPF1 / RFU, LARP1B / Fold change vs veh, LARP1B / RFU, RASA1 / Fold change vs veh, RASA1 / RFU, RB1 / Fold change vs veh, RB1 / RFU, PPFIA1 / Fold change vs veh, PPFIA1 / RFU, MAT2A / Fold change vs veh, MAT2A / RFU, CCT5 / Fold change vs veh, CCT5 / RFU, WDR92 / Fold change vs veh, WDR92 / RFU, CUX1 / Fold change vs veh, CUX1 / RFU, TTC7A / Fold change vs veh, TTC7A / RFU, TMEM135 / Fold change vs veh, TMEM135 / RFU, DEPTOR / Fold change vs veh, DEPTOR / RFU, CPM / Fold change vs veh, CPM / RFU, DNAJB6 / Fold change vs veh, DNAJB6 / RFU, CACNA2D3 / Fold change vs veh, CACNA2D3 / RFU, DTX4 / Fold change vs veh, DTX4 / RFU, TFCP2 / Fold change vs veh, TFCP2 / RFU, GMCL1 /// GMCL1P1 / Fold change vs veh, GMCL1 /// GMCL1P1 / RFU, AEBP2 / Fold change vs veh, AEBP2 / RFU, SNHG1 /// SNORD22 /// SNORD25 /// SNORD26 /// SNORD27 /// SNORD28 /// SNORD29 /// SNORD31 / Fold change vs veh, SNHG1 /// SNORD22 /// SNORD25 /// SNORD26 /// SNORD27 /// SNORD28 /// SNORD29 /// SNORD31 / Fold change (Aza/veh), C12orf56 (ProbeSet 11735607_a_at) / Fold change (ACY-1035/veh), C12orf56 (ProbeSet 11735607_a_at) / Fold change (Aza/veh), FGFR1OP (ProbeSet 11751329_s_at) / Fold change (ACY-1035/veh), FGFR1OP (ProbeSet 11751329_s_at) / Fold change (Aza/veh), VPS36 (ProbeSet 11739960_a_at) / Fold change (ACY-1035/veh), VPS36 (ProbeSet 11739960_a_at) / RFU SYPL1 (11715823_x_at) / Fold change /veh SYPL1 (11715823_x_at) / RFU IGFBP7 (11715501_s_at) / Fold change /veh IGFBP7 (11715501_s_at) / RFU REEP3 (11722064_at) / Fold change /veh REEP3 (11722064_at) / RFU IGLL1 (11728026_x_at) / Fold change /veh IGLL1 (11728026_x_at): dose or concentration left out as unconfirmed
Details: MV-4-11 cells, 48 hours

## Nc1ccc(-c2cccs2)cc1NC(=O)c1ccc2c(c1)cc(C1CC1)n2CCN1CCOCC1 [ACY-1035]
  Fold change /veh IGFBP7 (11715501_s_at): 0.33

From publication PMC5218480 (PLoS ONE, 2017)
